Measurements published in ChEMBL document CHEMBL1201862, “PubChem BioAssay data set” (2004).
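Tested at 5 concentrations; 48 h exposure; 96-well plates; endpoints linearly interpolated, else capped at highest concentration. Abbreviation: GI50, concentration required for 50% inhibition of growth.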 Active and inactive are the calls of the source. No stated cut-off is given here; in the data, active = GI50 up to about 1.1 µM and inactive = higher.

Key:
Test in all cases: NCI-60 cell line screen, 48 h
HL-60 = tested on: HL-60
KM12 = tested on: KM12
SN12C = tested on: SN12C
IGROV-1 = tested on: IGROV-1
UACC-257 = tested on: UACC-257
OVCAR-5 = tested on: OVCAR-5
HCT-15 = tested on: HCT-15
HT-29 = tested on: HT-29
SR = tested on: SR
A498 = tested on: A498
ACHN = tested on: ACHN
HCT-116 = tested on: HCT-116
LOX IMVI = tested on: LOX IMVI
OVCAR-4 = tested on: OVCAR-4
PC-3 = tested on: PC-3
SW-620 = tested on: SW-620
EKVX = tested on: EKVX
A549 = tested on: A549
NCI-H23 = tested on: NCI-H23
BT-549 = tested on: BT-549
K562 = tested on: K562
SK-MEL-28 = tested on: SK-MEL-28
M14 = tested on: M14
Hs-578T = tested on: Hs-578T
SF-539 = tested on: SF-539
DU-145 = tested on: DU-145
MDA-MB-435 = tested on: MDA-MB-435
MDA-MB-231 = tested on: MDA-MB-231
MDA-N = tested on: MDA-N
NCI-H226 = tested on: NCI-H226
COLO 205 = tested on: COLO 205
HOP-92 = tested on: HOP-92
RXF 393 = tested on: RXF 393
786-0 = tested on: 786-0
NCI-H522 = tested on: NCI-H522
OVCAR-3 = tested on: OVCAR-3
SK-MEL-2 = tested on: SK-MEL-2
SNB-75 = tested on: SNB-75
NCI-H460 = tested on: NCI-H460
T47D = tested on: T47D
CCRF-CEM = tested on: CCRF-CEM
Malme-3M = tested on: Malme-3M
UO-31 = tested on: UO-31
MCF7 = tested on: MCF7
TK-10 = tested on: TK-10
U-251 = tested on: U-251
SK-OV-3 = tested on: SK-OV-3
OVCAR-8 = tested on: OVCAR-8
HOP-62 = tested on: HOP-62
SK-MEL-5 = tested on: SK-MEL-5
MOLT-4 = tested on: MOLT-4
SF-295 = tested on: SF-295
RPMI-8226 = tested on: RPMI-8226
CAKI-1 = tested on: CAKI-1
HCC 2998 = tested on: HCC 2998
SF-268 = tested on: SF-268
NCI/ADR-RES = tested on: NCI/ADR-RES
UACC-62 = tested on: UACC-62
SNB-19 = tested on: SNB-19

Measured: GI50

O=C1CSC(/C=C/c2ccccc2)N1c1nc2cc3sc(N4C(=O)CSC4/C=C/c4ccccc4)nc3cc2s1 (centres undefined)
> 34.1 µM: HCT-15
inactive: HL-60 68.1 µM | KM12 48.9 µM | SN12C 18.3 µM | IGROV-1 > 62.1 µM | UACC-257 > 86.5 µM | OVCAR-5 > 65.6 µM | HT-29 18 µM | SR 14.6 µM | A498 > 100 µM | ACHN 42.1 µM | HCT-116 27.7 µM | LOX IMVI > 41.3 µM | OVCAR-4 65.3 µM | PC-3 54.2 µM | SW-620 9.46 µM | EKVX 13.2 µM | A549 9.82 µM | NCI-H23 > 48.3 µM | BT-549 > 75.9 µM | K562 42.4 µM | SK-MEL-28 > 58.7 µM | M14 > 100 µM | Hs-578T > 54 µM | SF-539 2.83 µM | DU-145 > 48.9 µM | MDA-MB-435 > 65.6 µM | MDA-MB-231 62.2 µM | MDA-N > 44.8 µM | NCI-H226 17.1 µM | COLO 205 3.66 µM | HOP-92 > 100 µM | RXF 393 > 100 µM | 786-0 > 58.9 µM | NCI-H522 6.97 µM | OVCAR-3 38.8 µM | SK-MEL-2 33.6 µM | SNB-75 73.8 µM | NCI-H460 3.33 µM | T47D > 100 µM | CCRF-CEM 3.53 µM | Malme-3M > 87.1 µM | UO-31 > 51.5 µM | MCF7 13.5 µM | TK-10 37.2 µM | U-251 44.6 µM | SK-OV-3 > 100 µM | OVCAR-8 > 100 µM | HOP-62 > 74 µM | SK-MEL-5 > 46.5 µM | MOLT-4 5.9 µM | SF-295 > 100 µM | RPMI-8226 22 µM | CAKI-1 53 µM | HCC 2998 43.8 µM | SF-268 > 100 µM | NCI/ADR-RES > 87.1 µM | UACC-62 > 100 µM | SNB-19 > 84.5 µM
